What is called Kd is the equilibrium constant for the complex coming apart. Read a high Kd as weaker binding.

Drawing on publication PMC8661809 (Protein Science : A Publication of the Protein Society, 2021), this text covers Kd for one compound.

The target of the test is CTD of SARS‐CoV‐2 N protein (Severe acute respiratory syndrome coronavirus 2, UniProt P0DTC9). The test can be described thus: biochemical. The format is binding.

For `Nc1ncnc2c1ncn2[C@@H]1O[C@H](COP(=O)(O)OP(=O)(O)OP(=O)(O)O)[C@@H](O)[C@H]1O` [ATP], the equilibrium dissociation constant (Kd) is 1490 ± 280 µM.
